Two molecules from patent US20080063610A1, “Use of Beta-Homocyclocitral as an Agent Against Bad Breath” (SYMRISE GMBH & CO. KG, priority 2004, published 2008) can be followed below.

A word on the MIC: it is the least concentration at which growth counts as inhibited. A low value points to a more susceptible organism.

Common to all, as to assay type: cell-based
In assay [1] the test system is fresh morning saliva. Briefly: In-vitro test to reduce bad breath (liquid medium inoculated with fresh morning saliva, sniffed by a panel). The protocol: In-Vitro Test to Reduce Bad Breath
The test is based on the work of Goldberg and Rosenberg (Production of Oral Malodor in an in vitro System, S. Goldberg and M. Rosenberg, pp.143 -150, in: Bad Breath—A multidisciplinary Approach, Eds: D. van Steenberghe, M. Rosenberg, Leuven University Press, 1996) and has been adapted to improve reproducibility.
A sterile liquid medium inoculated with fresh morning saliva is incubated for a few days at 37° C. and then sniffed by a panel of testers.
An intensive odour characteristic of bad breath has formed. Uninoculated controls have only a faint odour of the medium.
As a control for the tests, Triclosan® (5-chloro-2-(2,4-dichlorophenoxy)phenol) was added to inoculated samples in a concentration of 0.05%.

For assay [2], the system named is total number of bacteria in the samples of saliva. Briefly: Further test: total number of bacteria in samples of saliva. The note with it: concentration of 1000 ppm.
The subject of assay [3] is Pseudomonas aruginosa. Briefly: Further tests at 1000 ppm. The note with it: concentration of 1000 ppm.
Assay [4] concerns Pseudomonas aeruginosa. Briefly: Minimum inhibiting concentration, serial-dilution test. The protocol: (§1) Determination of the Minimum Inhibiting Concentration 5 The minimum inhibiting concentration (MIC) of beta-homocyclocitral was determined in a serial-dilution test against various bacteria.
The test system of assay [5] is Porphyromonas gingivalis. The assay is described as above. The protocol:
as §1

Assay [6] concerns Prevotella intermedia. The assay is described as above. The protocol: as §1
For assay [7], the system named is Streptococcus mutans. Described as above. The protocol: as §1
In assay [8] the test system is Staphylococcus aureus. Described as above. The protocol:
as §1

In assay [9] the test system is Veilonella parvula. The description is as above. The protocol:
as §1

The subject of assay [10] is Escherichia coli. The description is as above. The protocol:
as §1

Assay [11] deals with Fusobacterium nucleatum. The assay is described as above. The protocol: as §1
The subject of assay [12] is Escherichia coli. Briefly: Further tests at 1000 ppm. The note with it: concentration of 1000 ppm.
[13] abbreviates: 0.05% added to inoculated samples at the start of the test, 37° C., a few days.

In brackets after ≈: the same amount, converted by molar mass.

For the molecule `Oc1cc(Cl)ccc1Oc1ccc(Cl)cc1Cl` [Triclosan®, 5-chloro-2-(2,4-dichlorophenoxy)phenol, reference compound], the “odour after the incubation period” value in assay [1] (setting [13]) is given as “same faint odour of medium as the uninoculated samples”.

Turning to `CC1=C(CC=O)C(C)(C)CCC1` [beta-homocyclocitral, 2,6,6-trimethyl-1-cyclohexene-1-acetaldehyde], in [2], the “reduction of the total number of bacteria in samples of saliva” value is given as “no significant reduction”. Besides, the “odour after the incubation period” value is listed as “a changed characteristic odour or a mixed odour was discernible in some cases” in assay [1] (0.01% added to inoculated samples), “no odour” in assay [1] (0.025% added to inoculated samples) and “a slight characteristic odour is discernible” in assay [1] (setting [13]). The “odour at sensory assessment” value in [1] (0.05% added to the inoculated medium just one hour before the sensory assessment) was “unpleasant mixed odour of bad breath and a faint beta-homocyclocitral note”. This molecule also gave a minimum effective concentration in [1] (no odour after the incubation period) of 0.025%. For the same molecule, the “reduction with regard to Pseudomonas aruginosa” value in assay [3] is “no significant reduction”. Also, the minimum inhibitory concentration (MIC) in [4] is above 1000 mg/L; in assay [5], 125 mg/L (≈ 752 µM); in assay [6] (bactericidal), 250 mg/L (≈ 1500 µM); in [6] (bacteriostatic), 125 mg/L (≈ 752 µM); in assay [7] (bactericidal), 500 mg/L (≈ 3010 µM); in [8], 500 mg/L (≈ 3010 µM). Besides, the MIC in [9] (bactericidal) is 500 mg/L (≈ 3010 µM); in assay [10] it was above 1000 mg/L; in assay [11] (bactericidal), 250 mg/L (≈ 1500 µM). Also, the Type result is listed as “No action up to 1000 ppm” in assay [4]; “bactericidal action” in assay [7]; “bactericidal action” in assay [9]; “No action up to 1000 ppm” in assay [10]; “bactericidal action” in assay [11]. Moreover, the “reduction with regard to Escherichia coli” value in [12] is listed as “no significant reduction”.
